# According to patent US8604217B2, “Compound, a process for its preparation, a pharmaceutical composition, use of a compound, a method for modulating or regulating serine/threonine kinases and a serine/threonine kinases modulating agent” (Selvita S.A., priority 2009, dated 2013):
# Where two headings read alike, the source gives them in different places.
# Tests used:
# PIM-1 = PIM-1 (Homo sapiens (Human), UniProt P11309); assay: Luminometric kinase assay for PIM1 kinase (Kinase-Glo); type: biochemical; settings: 1 μM ATP, 25 min at RT
# Sequence of PIM-1 (P11309 whole entry): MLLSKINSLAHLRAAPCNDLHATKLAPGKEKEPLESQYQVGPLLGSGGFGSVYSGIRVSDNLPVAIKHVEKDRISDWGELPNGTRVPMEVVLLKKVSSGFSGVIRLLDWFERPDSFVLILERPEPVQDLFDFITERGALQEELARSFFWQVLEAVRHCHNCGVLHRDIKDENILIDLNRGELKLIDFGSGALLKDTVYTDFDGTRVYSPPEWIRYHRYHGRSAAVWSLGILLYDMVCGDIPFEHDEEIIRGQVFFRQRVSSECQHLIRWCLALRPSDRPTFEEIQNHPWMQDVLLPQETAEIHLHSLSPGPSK
# Procedure: Kinase assay was performed using luminescent Kinase-Glo® (Promega) system. The Kinase-Glo® Luminescent Kinase Assay Platform provides a homogeneous, high-throughput screening method for measuring kinase activity by quantifying the amount of ATP remaining in solution following a kinase reaction. The luminescent signal is correlated with the amount of ATP present and is inversely correlated with the kinase activity. Appropriate amounts of both kinase and substrate were mixed in 96-well, white wall plate in the reaction buffer (8 mM MOPS/NaOH, pH7.0, 0.2 mM EDTA, 2 mM MgCl2). Tested compounds were diluted in DMSO and serial dilutions starting with 1 μM were added to the palates. Reaction was initiated by adding 1 μM of ATP solution and conducted for 25 min. at RT. Luminescent signal was detected by adding Kinase-Glo® reagent and measured using a microplate spectrophotometer (Synergy 2 multi-mode microplate reader (BioTek)). IC50 values were obtained by fitting sigmoidal dose-response curve (variable slope) using GraphPad Prism software.
# [1] = test system: human colorectal adenocarcinoma SW480 cells; assay: Growth inhibition test (MTS) on SW480 cells; type: cell-based; settings: read-out: SW480 ED50
# Procedure: (§1) Two thousand cells of human colorectal adenocarcinoma SW480 were inoculated into each well of a 96-well microplate (manufactured by Corning Corp.), and using DMEM/Ham's F121:1 medium (culture medium) containing 5% fetal calf serum (FCS). Next day, a dimethyl sulfoxide (DMSO) solution of each test compound prepared in a concentration of 10 mmol/L was further diluted with culture medium to the desired concentrations (0.1, 0.5, 1, 2.5, 5 and 10 micromol/L), and the diluted solution was added to each well. The individual wells were further cultured in 5% carbon dioxide at 37° C. for 72 hours. After completion of the culture, 10 μl MTS (3-(4,5-Dimethyl-2-thiazolyl)-5-(carboxymethoxyphenyl)-2-(4-sulfophenyl)-2H-tetrazolium, inner salt assay (CellTiter96® AQueous One Solution Cell Proliferation Assay, Promega) was added to each well, and culturing was performed in 5% carbon dioxide at 37° C. for 2 hours. Using a microplate spectrophotometer (Synergy 2 multi-mode microplate reader (BioTek)), the absorbance of each well was measured at 490 nm. The value for cells not incorporated with a test compound was designated as 100%. By comparing these values with the absorbance difference obtained at the well in which each test compound was added, the cell viability (% viability) after treatment with the test compound was calculated.
# [2] = test system: human hepatoma HepG2 cells; assay: Growth inhibition test (MTS) on HepG2 cells; type: cell-based; settings: 72 hours, read-out: HepG2 ED50
# Procedure: as §1, with “human hepatoma HepG2” for “human colorectal adenocarcinoma SW480”, “Corning Corp.)” for “Corning Corp.), and”, “using DMEM” for “using DMEM/Ham's F121:1”, “containing 10%” for “containing 5%”
# [3] = test system: human myelomonocytic, biphenotypic leukemia MV4-11 cells; assay: Growth inhibition test (MTS) on MV4-11 cells; type: cell-based; settings: read-out: MV-4-11 ED50
# Procedure: as §1, with “Ten thousand” for “Two thousand”, “human myelomonocytic, biphenotypic leukemia MV4-11” for “human colorectal adenocarcinoma SW480”, “Corning Corp.)” for “Corning Corp.), and”, “using Iscove's MDM” for “using DMEM/Ham's F121:1”, “containing 10%” for “containing 5%”
# [4] = test system: human acute lymphocytic leukemia E6.1 Jurkat cells; assay: Growth inhibition test (MTS) on E6.1 Jurkat cells; type: cell-based; settings: 72 hours, read-out: Jurkat ED50
# Procedure: as §1, with “Twenty thousand” for “Two thousand”, “human acute lumphocytic leukemia E6.1 Jurkat” for “human colorectal adenocarcinoma SW480”, “Corning Corp.)” for “Corning Corp.), and”, “using […]” for “using DMEM/Ham's F121:1”, “containing 10%” for “containing 5%”
# [5] = test system: human prostate adenocarcinoma PC3 cells; assay: Growth inhibition test (MTS) on PC3 cells; type: cell-based; settings: for IC50: Homo sapiens, PC-3, 72 hours, read-out: PC-3 ED50
# Text: as §1, with “human prostate” for “human colorectal”, “adenocarcinoma PC3” for “adenocarcinoma SW480”, “using F12K (Ham's F12:[…] 1:1)” for “using DMEM/Ham's F121:1”, “containing 10%” for “containing 5%”
# [6] = test system: human breast adenocarcinoma MCF7 cells; assay: Growth inhibition test (MTS) on MCF7 cells; type: cell-based; settings: read-out: MCF-7 ED50
# Procedure: as §1, with “human breast” for “human colorectal”, “adenocarcinoma MCF7” for “adenocarcinoma SW480”, “using DMEM” for “using DMEM/Ham's F121:1”, “containing 10%” for “containing 5%”
Compound,IC50 (PIM-1),IC50 ([1]; 72 hours),IC50 [2],"IC50 ([3]; Homo sapiens, MV4-11, 72 hours)",IC50 [4],IC50 [5],"IC50 ([6]; Homo sapiens, MCF7, 72 hours)","IC50 ([1]; Homo sapiens, SW480, 72 hours)",IC50 ([3]; 72 hours),IC50 ([6]; 72 hours),PC-3 ED50 ([5]; 72 hours)
"Brc1c(Br)c(Br)c2[nH]c(NCCN3CCOCC3)nc2c1Br [Compound 16, 4,5,6,7-tetrabromo-N-(2-morpholinoethyl)-1H-benzo[d]imidazol-2-amine]",0.107 µM,9.68 µM,8.78 µM,–,–,–,–,–,–,–,–
"Brc1c(Br)c(Br)c2[nH]c(N3CCOCC3)nc2c1Br [Compound 19, 4,5,6,7-tetrabromo-2-morpholino-1H-benzo[d]imidazole]",0.0294 µM,–,–,6.83 µM,4.63 µM,–,–,–,–,–,–
Brc1c(Br)c(Br)c2[nH]c(NCCCN3CCCC3)nc2c1Br [Compound 58],0.0257 µM,–,2.93 µM,1.54 µM,3.37 µM,–,–,–,–,–,–
"CN(C)CCCN1CCN(c2nc3c(Br)c(Br)c(Br)c(Br)c3[nH]2)CC1 [Compound 75, 3-(4-(4,5,6,7-tetrabromo-1H-benzo[d]imidazol-2-yl)piperazin-1-yl)-N,N-dimethylpropan-1-amine]",0.279 µM,–,5.85 µM,3.33 µM,7.79 µM,–,–,–,–,–,–
"Brc1c(Br)c(Br)c2[nH]c(N3CCN(CCN4CCCCC4)CC3)nc2c1Br [Compound 76, 4,5,6,7-tetrabromo-2-(4-(2-(piperidin-1-yl)ethyl)piperazin-1-yl)-1H-benzo[d]imidazole]",0.117 µM,–,4.54 µM,5.27 µM,3.06 µM,–,–,–,–,–,–
"Brc1c(Br)c(Br)c2[nH]c(NCCCN3CCOCC3)nc2c1Br [Compound 192, 4,5,6,7-tetrabromo-N-(3-morpholinopropyl)-1H-benzo[d]imidazol-2-amine]",0.0454 µM,–,6.23 µM,5.13 µM,7.67 µM,–,–,–,–,–,–
"Oc1ccc(CCNc2nc3c(Br)c(Br)c(Br)c(Br)c3[nH]2)cc1 [Compound 243, 4-(2-(4,5,6,7-tetrabromo-1H-benzo[d]imidazol-2-ylamino)ethyl)phenol]",–,–,9 µM,6.84 µM,6.12 µM,–,–,–,–,–,–
"Fc1ccc(CNc2nc3c(Br)c(Br)c(Br)c(Br)c3[nH]2)cc1F [Compound 296, N-(3,4-difluorobenzyl)-4,5,6,7-tetrabromo-1H-benzo[d]imidazol-2-amine]",0.17 µM,–,5.91 µM,4.15 µM,8.12 µM,4.21 µM,–,–,–,–,–
"OC1CCC(Nc2nc3c(Br)c(Br)c(Br)c(Br)c3[nH]2)CC1 (stereo not drawn) [Compound 309, 4-(4,5,6,7-tetrabromo-1H-benzo[d]imidazol-2-ylamino)cyclohexanol]",0.0159 µM,–,4.87 µM,5.54 µM,8.18 µM,–,–,–,–,–,–
"Brc1c(Br)c(Br)c2[nH]c(Nc3ccccn3)nc2c1Br [Compound 329, 4,5,6,7-tetrabromo-N-(pyridin-2-yl)-1H-benzo[d]imidazol-2-amine]",0.047 µM,–,–,–,4.45 µM,4.69 µM,–,–,–,–,–
"OCCCN1CCN(c2nc3c(Br)c(Br)c(Br)c(Br)c3[nH]2)CC1 [Compound 383, 3-(4-(4,5,6,7-tetrabromo-1H-benzo[d]imidazol-2-yl)piperazin-1-yl)propan-1-ol]",0.0944 µM,–,7.12 µM,3.43 µM,–,8.3 µM,8.32 µM,3.72 µM,–,–,–
"Brc1c(Br)c(Br)c2[nH]c(N3CCN(Cc4cn5ccccc5n4)CC3)nc2c1Br [Compound 387, 2-(4-((H-imidazo[1,2-a]pyridin-2-yl)methyl)piperazin-1-yl)-4,5,6,7-tetrabromo-1H-benzo[d]imidazole]",–,3.27 µM,–,–,–,–,–,–,2.13 µM,9.25 µM,5.49 µM
"N=C(N)N1CCN(c2nc3c(Br)c(Br)c(Br)c(Br)c3[nH]2)CC1 [Compound 392, 4-(4,5,6,7-tetrabromo-1H-benzo[d]imidazol-2-yl)piperazine-1-carboxamidine]",0.00672 µM,–,–,7.55 µM,–,4.48 µM,–,1.85 µM,–,–,–
